From patent US10813936B2, “Crystalline form of (S)-N-(5-((R)-2-(2,5-difluorophenyl)-pyrrolidin-1-YL)-pyrazolo[1,5-A]pyrimidin-3-YL)-3-hydroxypyrrolidine-1-carboxamide hydrogen sulfate” (Array BioPharma, Inc., priority 2014, dated 2020)
Where a name gives a salt, the structure may show the parent alone.

Assays:
[1] = Dynamic vapor sorption (DVS-1 system); type: physicochemical; conditions: for DVS (outcome): form after or during DVS, HCl at 50-60% RH
Procedure: For the DVS measurement a sample of crystalline form (I—HS) was cycled through changing humidity conditions to determine its hygroscopicity. The sample was analyzed using a Surface Measurement System DVS-1 Dynamic Vapor Sorption System. […] Data was collected in 1 minute intervals. Nitrogen was used as the carrier gas. […] After completion of the sorption cycle, the sample was dried using the same procedure, but all the way down to 0% RH and finally taken back to the starting point of 20% RH. The weight change during the sorption/desorption cycles were plotted, allowing for the hygroscopic nature of the sample to be determined.

[2] = Stability on aluminum slide at 40° Celsius/75% RH; type: physicochemical; conditions: time: I-HS 10 days, HCl 1 hour, HBr 2 weeks, mesylate overnight
[3] = Accelerated stability, 40° C./75% RH, five weeks, LDPE bag; type: physicochemical; conditions: for API chemical purity over the course of the stability study: five weeks; for Assay / Chiral Potency / Total Impurities: HPLC
Procedure: Upon removal from the chamber, the samples were physically characterized by appearance, KF, TGA, DSC, XRD and PLM. The samples were also analyzed by HPLC for chromatographic purity, chiral integrity and potency. Where applicable, the data presented in the stability portion also includes the original T=0 data for comparison purposes. The data can be seen in Tables 25-29 and FIGS. 40-44.

[4] = system: MPRIP-TRKA oncoprotein and ERK1/2; assay: Immunoblot of phosphorylation in CUTO-3F cells; type: cell-based, human; conditions: low doses, 2 hours
Text: (§1) Briefly, cells were lysed in RIPA buffer with Halt Protease and Phosphatase Inhibitor Cocktail (Thermo Scientific) and diluted in loading buffer (LI-COR Biosciences). The membranes were scanned and analyzed using the Odyssey Imaging System and software (LI-COR). The following antibodies were used from Cell Signaling: pTRK Y490 (rabbit polyclonal, #9141), pERK1/2 XP T202/Y204 (#9101), total ERK1/2, pAKT 5473 (rabbit mAb, #4060), and total AKT mouse clone D3A7 (#2920). TRK (C-14) rabbit polyclonal antibody was purchased from Santa Cruz Biotechnology. GAPDH (MAB374) and pTYR (4G10) are from Millipore.

[5] = system: TPM3-TRKA, pAKT, and pERK1/2; assay: Immunoblot of phosphorylation in KM12 cells; type: cell-based, human; conditions: low doses, 2 hours
Text: as §1

[6] = system: TEL-TRKC oncoprotein, pAKT, and pERK1/2; assay: Immunoblot of phosphorylation in MO-91 cells; type: cell-based, human; conditions: low doses, 2 hours
Text: FIG. 13 is an immunoblot showing that the crystalline form (I—HS)inhibits TEL-TRKC kinase and ERK1/2 and AKT activity in MO-91 cells.
as §1

TRKA-SHC1 complexes = assay: TRK-SHC1 proximity ligation assay in CUTO-3 cells; type: cell-based, human; conditions: 100 nM, 2 hours, versus DMSO
Procedure: PLAs are unique because they can detect functional signaling complexes between a kinase and one of its adaptors in situ. In this assay, TRKA complexed with its preferred adaptor, SHC1, which binds to Y496 in the TRKA kinase domain, was measured (FIG. 17).
Cells were seeded onto glass coverslips (in a 48 well plate) or chamber slides at 25-75 k cells/well. Cells were treated with the indicated doses and times then fixed for 15 minutes by shaking at room temperature in 4% paraformaldehyde. The cells were rinsed twice in PBS, and then the Duolink® in situ PLA® kit from SigmaAldrich in mouse/rabbit (Red) was used according to the manufacturer's protocol (catalog # DUO92101). The antibody concentrations were optimized using immunofluorescence prior to PLA experiments. […] Additionally, samples were treated with 300 mM glycine for 15 minutes prior to the blocking step, otherwise the assay was performed according to the manufacturer's protocol. The cells were mounted using Prolong® gold anti-fade reagent (with DAPI) and cured overnight prior to imaging. The images were either taken on a Nikon standard inverted fluorescent microscope at 40×, or on the 31 Marianas spinning disc confocal in the University of Colorado Anschutz Medical Campus Advance Light Microscopy Core at 40× or 100×. […]

[7] = system: xenograph (human) tumor derived from CUTO-3F cell line; assay: Xenograft tumor growth, CUTO-3F; type: in vivo, mice; conditions: CUTO-3F xenograft, oral daily 60 mg/kg or 200 mg/kg
Text: (§2) The three different cancer cell lines, the CUTO-3F cell line, the KM12 cell line, and the MO-91 cell line, each express a different Trk gene fusion. […] Following implantation of one of these three different xenograph (human) tumors in mice, the change in the volume of each tumor was monitored.

[8] = system: xenograph (human) tumor derived from KM12 cell line; assay: Xenograft tumor growth, KM12; type: in vivo, mice; conditions: oral daily 60 mg/kg or 200 mg/kg
Text: as §2

[9] = system: xenograph (human) tumor derived from MO-91 cell line; assay: Xenograft tumor growth, MO-91; type: in vivo, mice; conditions: MO-91 xenograft, oral daily 60 mg/kg or 200 mg/kg
Text: as §2

[10] = system: undifferentiated sarcoma with LMNA-NTRK1 fusion; assay: Phase 1 trial case: patient with undifferentiated sarcoma; type: in vivo, human; conditions: one patient
Text: The patient started cycle 1 day 1 three days later. The patient was seen weekly for pharmacokinetic and safety analysis.

[11] = system: solid tumors with NTRK-fusions; assay: Phase 1 study: response (RECIST 1.1) in NTRK-fusion patients; type: in vivo, human; conditions: 100 or 150 mg BID
Procedure: Three of the 23 patients harbored NTRK-fusions and were treated at either 100 or 150 mg BID.

[12] = Dynamic vapor sorption (IGAsorp analyzer, 25° C.); type: physicochemical
Procedure: • 1. The hygroscopicity was studied at 25° C. using an IGAsorp analyzer. • 2. About 15 mg of sample was placed in a tared mesh sample holder at an initial ambient room humidity setting of ˜35%. • 3. A total wet/dry nitrogen flow rate of 250 cc/min is used throughout the study. • 4. […] The maximum time allowed at any one humidity set point was 120 min. The sample was maintained under dry N2 after the cycle was completed. Percent weight gain was calculated based on the dry weight basis. Part One: Physical Characterization of Crystalline Form (I—HS)

[13] = Phase 1 dose escalation study: safety and pharmacokinetics
Procedure: Response is measured by RECIST Criteria, version 1.1. Serum is collected for pharmacokinetic analysis on Cycle 1 Day 1 and Day 8. Safety information is collected on all patients and the definition of dose-limiting toxicity applies to adverse events regardless of relationship to investigational product.

## CS(=O)(=O)O.O=C(Nc1cnn2ccc(N3CCC[C@@H]3c3cc(F)ccc3F)nc12)N1CC[C@H](O)C1 [Mesylate, (S)—N-(5-((R)-2-(2,5-difluorophenyl)pyrrolidin-1-yl)pyrazolo[1,5-a]pyrimidin-3-yl)-3-hydroxypyrrolidine-1-carboxamide methanesulfonate]
[1]
  DVS (outcome): (crystalline)
[2]
  Stability at 40° Celsius/75% RH (aluminum slide): Deliquesced

## O=C(Nc1cnn2ccc(N3CCC[C@@H]3c3cc(F)ccc3F)nc12)N1CC[C@H](O)C1.O=S(=O)(O)O [AM(HS)1, (S)—N-(5-((R)-2-(2,5-difluorophenyl)-pyrrolidin-1-yl)-pyrazolo[1,5-a]pyrimidin-3-yl)-3-hydroxypyrrolidine-1-carboxamide hydrogen sulfate]
[3]; 40 C/75% RH, 5 wks.
  Peak Area Percent, RRT 0.793: 0.00 Peak Area Percent
  Peak Area Percent, RRT 0.863: 1.04 Peak Area Percent
  Peak Area Percent, RRT 0.981: 0.12 Peak Area Percent
  Peak Area Percent, RRT 1.000: 98.83 Peak Area Percent
  Peak Area Percent, RRT 1.535: 0.00 Peak Area Percent
[3]; 40° C./75% RH, 5 wks.
  KF: 0.56 w/w %
  Assay: 80.3%
  Chiral Potency: 99.6%
  Total Impurities: 1.16%
[3]; 40° C./75% RH
  API chemical purity over the course of the stability study: did not change significantly
[3]; time point 0 wks.
  Assay: 79.5%
  Chiral Potency: 99.6%
  Total Impurities: 1.10%
  Appearance: Yellow Powder free
  KF: 2.00 w/w %
  Peak Area Percent, RRT 0.793: 0.00 Peak Area Percent
  Peak Area Percent, RRT 0.863: 0.98 Peak Area Percent
  Peak Area Percent, RRT 0.981: 0.12 Peak Area Percent
  Peak Area Percent, RRT 1.000: 98.89 Peak Area Percent
  Peak Area Percent, RRT 1.535: 0.00 Peak Area Percent

## Cl.O=C(Nc1cnn2ccc(N3CCC[C@@H]3c3cc(F)ccc3F)nc12)N1CC[C@H](O)C1 [HCl, (S)—N-(5-((R)-2-(2,5-difluorophenyl)pyrrolidin-1-yl)pyrazolo[1,5-a]pyrimidin-3-yl)-3-hydroxypyrrolidine-1-carboxamide hydrochloride]
[1]
  DVS (outcome): form change
[2]
  Stability at 40° Celsius/75% RH (aluminum slide): form change

## Br.O=C(Nc1cnn2ccc(N3CCC[C@@H]3c3cc(F)ccc3F)nc12)N1CC[C@H](O)C1 [HBr, (S)—N-(5-((R)-2-(2,5-difluorophenyl)pyrrolidin-1-yl)pyrazolo[1,5-a]pyrimidin-3-yl)-3-hydroxypyrrolidine-1-carboxamide hydrobromide]
[1]
  DVS (outcome): (deliquesced)
[2]
  Stability at 40° Celsius/75% RH (aluminum slide): amorphous

## O=C(Nc1cnn2ccc(N3CCC[C@@H]3c3cc(F)ccc3F)nc12)N1CC[C@H](O)C1.O=S(=O)(O)O [AM(HS), (S)—N-(5-((R)-2-(2,5-difluorophenyl)-pyrrolidin-1-yl)-pyrazolo[1,5-a]pyrimidin-3-yl)-3-hydroxypyrrolidine-1-carboxamide hydrogen sulfate]
[3]
  behaviour when exposed to humidity: deliquesced

## O=C(Nc1cnn2ccc(N3CCC[C@@H]3c3cc(F)ccc3F)nc12)N1CC[C@H](O)C1 [crystalline form (I—HS), (S)—N-(5-((R)-2-(2,5-difluorophenyl)-pyrrolidin-1-yl)-pyrazolo[1,5-a]pyrimidin-3-yl)-3-hydroxypyrrolidine-1-carboxamide hydrogen sulfate]
[4]
  inhibition of phosphorylation of the MPRIP-TRKA oncoprotein and ERK1/2: inhibition
[5]
  inhibition of phosphorylation of TPM3-TRKA, pAKT, and pERK1/2: inhibition
[6]
  inhibition of phosphorylation of the TEL-TRKC oncoprotein, pAKT, and pERK1/2: inhibition
TRKA-SHC1 complexes
  effect on TRKA-SHC1 complexes (PLA): disruption of TRKA-SHC1 complexes
[7]
  growth of xenograft tumor: effectively halt the growth, or decrease the rate of growth
[8]
  growth of xenograft tumor: effectively halt the growth, or decrease the rate of growth
[9]
  growth of xenograft tumor: effectively halt the growth, or decrease the rate of growth
[10]; 100 mg twice daily, CT prior to cycle 2 and cycle 3
  response by RECIST 1.1: partial response
[10]; 4-week period of cycle 1
  drug-related adverse events: No drug-related adverse events
[10]; after four months of dosing
  adverse events attributed to the drug: did not have any adverse events
[10]; on room air, after treatment (baseline 90% with 5 L oxygen)
  oxygen saturation: 97%
[10]; over cycle 1
  CA125 levels: normalized
[11]
  response of the three NTRK-fusion patients: partial response
[1]
  hygroscopicity (DVS): non-hygroscopic
  DVS (outcome): RH No change
[1]; between 0% and 90% RH
  increase in mass during the sorption cycle: about 1.7%
[2]
  Stability at 40° Celsius/75% RH (aluminum slide): No form change
[12]
  hygroscopicity (DVS): not hygroscopic
[3]; 40 C/75% RH, 5 wks.
  Peak Area Percent, RRT 0.793: 0.07 Peak Area Percent
  Peak Area Percent, RRT 0.863: 0.00 Peak Area Percent
  Peak Area Percent, RRT 0.981: 0.00 Peak Area Percent
  Peak Area Percent, RRT 1.000: 99.93 Peak Area Percent
  Peak Area Percent, RRT 1.535: 0.00 Peak Area Percent
[3]; 40° C./75% RH, 5 wks.
  Appearance: Orange Powder free
  KF: 0.21 w/w %
  Assay: 79.6%
  Chiral Potency: 99.6%
  Total Impurities: 0.07%
[3]; 40° C./75% RH
  API chemical purity over the course of the stability study: did not change significantly
[3]; time point 0 wks.
  Assay: 79.4%
  Chiral Potency: 99.6%
  Total Impurities: 0.14%
  Appearance: Orange Powder free
  KF: 0.28 w/w %
  Peak Area Percent, RRT 0.793: 0.07 Peak Area Percent
  Peak Area Percent, RRT 0.863: 0.00 Peak Area Percent
  Peak Area Percent, RRT 0.981: 0.00 Peak Area Percent
  Peak Area Percent, RRT 1.000: 99.86 Peak Area Percent
  Peak Area Percent, RRT 1.535: 0.07 Peak Area Percent
[13]; 23 patients
  adverse event: Grade 1 and 2 anemia: 22%
  adverse event: Grade 1 and 2 dizziness: 26%
  adverse event: Grade 1 and 2 fatigue: 35%
[13]; elevated AST grade 3 (150 mg BID), delirium grade 3 unrelated (100 mg BID)
  patients with dose limiting toxicities: Two
